# Measured values taken from ChEMBL document CHEMBL1147116 (Antimicrob Agents Chemother, 2007).
# Legend:
# [1] = Half life at 843.5 mg/24 hrs regimen in vitro PK model; type: ADME
# Streptococcus pneumoniae [2] = assay: fAUC/MIC ratio of Streptococcus pneumoniae ATCC 49610 at 750 mg
# Streptococcus pneumoniae [3] = assay: microbe, parasite or virus in culture; conditions: Staphylococcus aureus, BSP2443
# Streptococcus pneumoniae [4] = assay: microbe, parasite or virus in culture; conditions: Staphylococcus aureus, ATCC 49619
# Streptococcus pneumoniae [5] = assay: fAUC/MIC ratio of Streptococcus pneumoniae ATCC 49610 at 1000 mg
# Streptococcus pneumoniae [6] = assay: fAUC/MIC ratio of Streptococcus pneumoniae BSP-2443 at 812.5 mg
# [7] = Half life at 812.5 mg/24 hrs regimen in vitro PK model; type: ADME
# [8] = Peak free concentration at 500 mg/24 hrs regimen in vitro PK model; type: ADME
# Streptococcus pneumoniae [9] = assay: Susceptibility of Streptococcus pneumoniae ATCC 49619 by microdilution method; type: functional
# [10] = Peak free concentration at 1000 mg/24 hrs regimen in vitro PK model; type: ADME
# Streptococcus pneumoniae [11] = assay: microbe, parasite or virus in culture; conditions: Staphylococcus aureus, ATCC 49619, 24 h
# Streptococcus pneumoniae [12] = assay: fAUC/MIC ratio of Streptococcus pneumoniae BSP-2443 at 750 mg
# Streptococcus pneumoniae [13] = assay: microbe, parasite or virus in culture; conditions: Staphylococcus aureus, ATCC 49619; remark: listed apart in the source
# Streptococcus pneumoniae [14] = assay: microbe, parasite or virus in culture; conditions: Staphylococcus aureus, BSP2443; remark: listed apart in the source
# Streptococcus pneumoniae [15] = assay: fAUC/MIC ratio of Streptococcus pneumoniae ATCC 49610 at 812.5 mg
# Streptococcus pneumoniae [16] = assay: fAUC/MIC ratio of Streptococcus pneumoniae ATCC 49610 at 875 mg
# [17] = Peak free concentration at 875 mg/24 hrs regimen in vitro PK model; type: ADME
# [18] = Half life at 750 mg/24 hrs regimen in vitro PK model; type: ADME
# Streptococcus pneumoniae [19] = assay: microbe, parasite or virus in culture; conditions: Staphylococcus aureus, ATCC 49619; remark: listed apart in the source
# Streptococcus pneumoniae [20] = assay: fAUC/MIC ratio of Streptococcus pneumoniae ATCC 49610 at 843.5 mg
# Streptococcus pneumoniae [21] = assay: microbe, parasite or virus in culture; conditions: Staphylococcus aureus, ATCC 49619; remark: listed apart in the source
# [22] = Half life at 500 mg/24 hrs regimen in vitro PK model; type: ADME
# [23] = Half life at 875 mg/24 hrs regimen in vitro PK model; type: ADME
# Streptococcus pneumoniae [24] = assay: fAUC/MIC ratio of Streptococcus pneumoniae BSP-2443 at 1000 mg
# Streptococcus pneumoniae [25] = assay: Susceptibility of Streptococcus pneumoniae BSP-2443 by microdilution method; type: functional; conditions: BSP2443
# Streptococcus pneumoniae [26] = assay: microbe, parasite or virus in culture; conditions: Staphylococcus aureus, BSP2443, 96 h
# [27] = Peak free concentration at 812.5 mg/24 hrs regimen in vitro PK model; type: ADME
# Streptococcus pneumoniae [28] = assay: microbe, parasite or virus in culture; conditions: Staphylococcus aureus, BSP2443; remark: listed apart in the source
# Streptococcus pneumoniae [29] = assay: fAUC/MIC ratio of Streptococcus pneumoniae ATCC 49610 at 500 mg
# Streptococcus pneumoniae [30] = assay: microbe, parasite or virus in culture; conditions: Staphylococcus aureus, BSP2443; remark: listed apart in the source
# Streptococcus pneumoniae [31] = assay: microbe, parasite or virus in culture; conditions: Staphylococcus aureus, ATCC 49619; remark: listed apart in the source
# Streptococcus pneumoniae [32] = assay: microbe, parasite or virus in culture; conditions: Staphylococcus aureus, BSP2443; remark: listed apart in the source
# Streptococcus pneumoniae [33] = assay: microbe, parasite or virus in culture; conditions: Staphylococcus aureus, BSP2443, 96 h; remark: listed apart in the source
# Streptococcus pneumoniae [34] = assay: microbe, parasite or virus in culture; conditions: Staphylococcus aureus, ATCC 49619, 24 h; remark: listed apart in the source
# [35] = Half life at 1000 mg/24 hrs regimen in vitro PK model; type: ADME
# Streptococcus pneumoniae [36] = assay: microbe, parasite or virus in culture; conditions: Staphylococcus aureus, ATCC 49619, 24 h; remark: listed apart in the source
# Streptococcus pneumoniae [37] = assay: fAUC/MIC ratio of Streptococcus pneumoniae BSP-2443 at 937.5 mg
# [38] = Peak free concentration at 843.5 mg/24 hrs regimen in vitro PK model; type: ADME
# Streptococcus pneumoniae [39] = assay: fAUC/MIC ratio of Streptococcus pneumoniae BSP-2443 at 843.5 mg
# Streptococcus pneumoniae [40] = assay: microbe, parasite or virus in culture; conditions: Staphylococcus aureus, BSP2443; remark: listed apart in the source
# Streptococcus pneumoniae [41] = assay: fAUC/MIC ratio of Streptococcus pneumoniae BSP-2443 at 875 mg
# [42] = Peak free concentration at 750 mg/24 hrs regimen in vitro PK model; type: ADME
# Streptococcus pneumoniae [43] = assay: microbe, parasite or virus in culture; conditions: Staphylococcus aureus, ATCC 49619; remark: listed apart in the source
# Streptococcus pneumoniae [44] = assay: microbe, parasite or virus in culture; conditions: Staphylococcus aureus, BSP2443; remark: listed apart in the source
# Staphylococcus aureus [45] = assay: Bactericidal activity against Staphylococcus aureus ATCC 49619 at fAUC/MIC of […] after 72 hrs in pharmacodynamic model; type: functional; conditions: ATCC 49619, 72 h
# [46] = Peak free concentration at 100 mg/24 hrs regimen in vitro PK model; type: ADME
# Streptococcus pneumoniae [47] = assay: microbe, parasite or virus in culture; conditions: Staphylococcus aureus, ATCC 49619; remark: listed apart in the source
# Streptococcus pneumoniae [48] = assay: microbe, parasite or virus in culture; conditions: Staphylococcus aureus, BSP2443; remark: listed apart in the source
# Streptococcus pneumoniae [49] = assay: microbe, parasite or virus in culture; conditions: Staphylococcus aureus, BSP2443, 96 h; remark: listed apart in the source
# [50] = Peak free concentration at 75 mg/24 hrs regimen in vitro PK model; type: ADME
# [51] = Peak free concentration at 400 mg/24 hrs regimen in vitro PK model; type: ADME
# Streptococcus pneumoniae [52] = assay: microbe, parasite or virus in culture; conditions: Staphylococcus aureus, ATCC 49619; remark: listed apart in the source
# [53] = Peak free concentration at 50 mg/24 hrs regimen in vitro PK model; type: ADME
# Streptococcus pneumoniae [54] = assay: microbe, parasite or virus in culture; conditions: Staphylococcus aureus, ATCC 49619; remark: listed apart in the source
# Streptococcus pneumoniae [55] = assay: microbe, parasite or virus in culture; conditions: Staphylococcus aureus, BSP2443; remark: listed apart in the source
# Staphylococcus aureus [56] = assay: Bactericidal activity against Staphylococcus aureus ATCC 49619 at fAUC/MIC of […] after 96 hrs in pharmacodynamic model; type: functional; conditions: ATCC 49619, 96 h
# Streptococcus pneumoniae [57] = assay: Bactericidal activity against Streptococcus pneumoniae BSP-2443 with parC S52G, N91D mutation and gyrA S114G mutation at fAUC/MIC of 24 after 96 hrs in pharmacodynamic model; conditions: BSP2443, 96 h
# Streptococcus pneumoniae [58] = assay: microbe, parasite or virus in culture; conditions: Staphylococcus aureus, ATCC 49619; remark: listed apart in the source
# Streptococcus pneumoniae [59] = assay: microbe, parasite or virus in culture; conditions: Staphylococcus aureus, ATCC 49619; remark: listed apart in the source
# Streptococcus pneumoniae [60] = assay: Bactericidal activity against Streptococcus pneumoniae BSP-2443 with parC S52G, N91D mutation and gyrA S114G mutation at fAUC/MIC of 24 after 72 hrs in pharmacodynamic model; conditions: BSP2443, 72 h
# [61] = Peak free concentration at 200 mg/24 hrs regimen in vitro PK model; type: ADME
# Streptococcus pneumoniae [62] = assay: microbe, parasite or virus in culture; conditions: Staphylococcus aureus, BSP2443, 72 h
smiles,measurement,setting,value
C[C@H]1COc2c(N3CCN(C)CC3)c(F)cc3c(=O)c(C(=O)O)cn1c23.C[C@H]1COc2c(N3CCN(C)CC3)c(F)cc3c(=O)c(C(=O)O)cn1c23.O [LEVOFLOXACIN],half-life,[1],419 min
same,fAUC/MIC,Streptococcus pneumoniae [2],79
same,MIC,Streptococcus pneumoniae [3],0.75 µg/mL
same,MIC,Streptococcus pneumoniae [4],0.75 µg/mL
same,fAUC/MIC,Streptococcus pneumoniae [5],114
same,fAUC/MIC,Streptococcus pneumoniae [6],83
same,half-life,[7],424 min
same,Activity,[8],4.1 µg/mL
same,MIC,Streptococcus pneumoniae [9],0.025 µg/mL
same,Activity,[10],8.75 µg/mL
same,MIC,Streptococcus pneumoniae [11],1.5 µg/mL
same,fAUC/MIC,Streptococcus pneumoniae [12],75
same,MIC,Streptococcus pneumoniae [13],0.75 µg/mL
same,MIC,Streptococcus pneumoniae [14],0.75 µg/mL
same,fAUC/MIC,Streptococcus pneumoniae [15],82
same,fAUC/MIC,Streptococcus pneumoniae [16],97
same,Activity,[17],7.19 µg/mL
same,half-life,[18],451 min
same,MIC,Streptococcus pneumoniae [19],0.75 µg/mL
same,fAUC/MIC,Streptococcus pneumoniae [20],89
same,MIC,Streptococcus pneumoniae [21],> 32 µg/mL
same,half-life,[22],481 min
same,half-life,[23],481 min
same,fAUC/MIC,Streptococcus pneumoniae [24],117
same,MIC,Streptococcus pneumoniae [25],0.025 µg/mL
same,MIC,Streptococcus pneumoniae [26],> 32 µg/mL
same,Activity,[27],6.78 µg/mL
same,MIC,Streptococcus pneumoniae [28],0.75 µg/mL
same,fAUC/MIC,Streptococcus pneumoniae [29],55
same,MIC,Streptococcus pneumoniae [30],0.75 µg/mL
same,MIC,Streptococcus pneumoniae [31],> 32 µg/mL
same,MIC,Streptococcus pneumoniae [32],> 32 µg/mL
same,MIC,Streptococcus pneumoniae [33],2 µg/mL
same,MIC,Streptococcus pneumoniae [34],1.5 µg/mL
same,half-life,[35],471 min
same,MIC,Streptococcus pneumoniae [36],0.75 µg/mL
same,fAUC/MIC,Streptococcus pneumoniae [37],104
same,Activity,[38],7.09 µg/mL
same,fAUC/MIC,Streptococcus pneumoniae [39],86
same,MIC,Streptococcus pneumoniae [40],0.75 µg/mL
same,fAUC/MIC,Streptococcus pneumoniae [41],94
same,Activity,[42],6.13 µg/mL
same,MIC,Streptococcus pneumoniae [43],> 32 µg/mL
COc1c(N2C[C@@H]3CCCN[C@@H]3C2)c(F)cc2c(=O)c(C(=O)O)cn(C3CC3)c12 [MOXIFLOXACIN],MIC,Streptococcus pneumoniae [44],0.25 µg/mL
same,MIC,Staphylococcus aureus [45],0.19 µg/mL
same,Activity,[46],0.6 µg/mL
same,MIC,Streptococcus pneumoniae [47],0.125 µg/mL
same,MIC,Streptococcus pneumoniae [9],0.025 µg/mL
same,MIC,Streptococcus pneumoniae [48],0.25 µg/mL
same,MIC,Streptococcus pneumoniae [49],4 µg/mL
same,Activity,[50],0.45 µg/mL
same,Activity,[51],2.48 µg/mL
same,MIC,Streptococcus pneumoniae [52],0.125 µg/mL
same,MIC,Streptococcus pneumoniae [25],0.025 µg/mL
same,Activity,[53],0.3 µg/mL
same,MIC,Streptococcus pneumoniae [54],0.125 µg/mL
same,MIC,Streptococcus pneumoniae [55],0.25 µg/mL
same,MIC,Staphylococcus aureus [56],0.75 µg/mL
same,MIC,Streptococcus pneumoniae [57],1.5 µg/mL
same,MIC,Streptococcus pneumoniae [58],0.125 µg/mL
same,MIC,Streptococcus pneumoniae [59],0.125 µg/mL
same,MIC,Streptococcus pneumoniae [60],0.38 µg/mL
same,Activity,[61],1.1 µg/mL
same,MIC,Streptococcus pneumoniae [62],4 µg/mL
